Experimental data: US20160367623A1, “AGONISTS OF GUANYLATE CYCLASE USEFUL FOR THE TREATMENT OF GASTROINTESTINAL DISORDERS, INFLAMMATION, CANCER AND OTHER DISORDERS” (priority 2015, published 2016)
Bridge positions count the residues as written; N and C are the ends. Ends that are not written are not given here.

Test system: patients with chronic idiopathic constipation (CIC)
Experiment: Second phase 3 CIC trial: change from baseline in CSBMs/week
Format: in vivo, human
Conditions: MRA
[1] = Week 3, 6 mg, ITT Population-Excluding Duplicate Patients
[2] = Week 4, 3 mg, ITT Population-Excluding Duplicate Patients
[3] = Week 4, 6 mg, ITT Population-Excluding Duplicate Patients
[4] = Week 5, 3 mg, ITT Population-Excluding Duplicate Patients
[5] = Week 5, 6 mg, ITT Population-Excluding Duplicate Patients
[6] = Week 6, 3 mg, ITT Population-Excluding Duplicate Patients
[7] = Week 6, 6 mg, ITT Population-Excluding Duplicate Patients
[8] = Week 7, 3 mg, ITT Population-Excluding Duplicate Patients
[9] = Week 7, 6 mg, ITT Population-Excluding Duplicate Patients
[10] = Week 8, 3 mg, ITT Population-Excluding Duplicate Patients

## Asn^1-Asp^2-Glu^3-Cys^4-Glu^5-Leu^6-Cys^7-Val^8-Asn^9-Val^10-Ala^11-Cys^12-Thr^13-Gly^14-Cys^15-Leu^16 (NDECELCVNVACTGCL; disulfide 4-12, 7-15) [Plecanatide, uroguanylin analogue, guanylate cyclase-C agonist; (C4:C12, C7:C15) bicycle peptide]
Week 3, 6 mg, ITT Population
  Change from Baseline in CSBMs, Mean (SD): 1.82 (2.949) CSBMs/week
[1]
  Change from Baseline in CSBMs, Difference from Placebo: 0.61 CSBMs/week
  Change from Baseline in CSBMs, LS Mean (SE): 1.83 (0.154) CSBMs/week
  Change from Baseline in CSBMs, Mean (SD): 1.83 (2.958) CSBMs/week
Week 3, Active Combined, ITT Population-Excluding Duplicate Patients
  Change from Baseline in CSBMs, Mean (SD): 1.89 (3.049) CSBMs/week
Week 3, Active Combined, ITT Population
  Change from Baseline in CSBMs, Mean (SD): 1.88 (3.032) CSBMs/week
Week 4, 3 mg, ITT Population
  Change from Baseline in CSBMs, Difference from Placebo: 0.91 CSBMs/week
  Change from Baseline in CSBMs, LS Mean (SE): 2.16 (0.153) CSBMs/week
  Change from Baseline in CSBMs, Mean (SD): 2.19 (3.395) CSBMs/week
[2]
  Change from Baseline in CSBMs, Difference from Placebo: 0.92 CSBMs/week
  Change from Baseline in CSBMs, LS Mean (SE): 2.20 (0.156) CSBMs/week
  Change from Baseline in CSBMs, Mean (SD): 2.22 (3.418) CSBMs/week
Week 4, 6 mg, ITT Population
  Change from Baseline in CSBMs, Difference from Placebo: 0.75 CSBMs/week
  Change from Baseline in CSBMs, LS Mean (SE): 2.00 (0.152) CSBMs/week
  Change from Baseline in CSBMs, Mean (SD): 2.03 (3.243) CSBMs/week
[3]
  Change from Baseline in CSBMs, Difference from Placebo: 0.75 CSBMs/week
  Change from Baseline in CSBMs, LS Mean (SE): 2.02 (0.154) CSBMs/week
  Change from Baseline in CSBMs, Mean (SD): 2.03 (3.254) CSBMs/week
Week 4, Active Combined, ITT Population-Excluding Duplicate Patients
  Change from Baseline in CSBMs, Mean (SD): 2.13 (3.335) CSBMs/week
Week 4, Active Combined, ITT Population
  Change from Baseline in CSBMs, Mean (SD): 2.11 (3.318) CSBMs/week
Week 5, 3 mg, ITT Population
  Change from Baseline in CSBMs, Difference from Placebo: 0.84 CSBMs/week
  Change from Baseline in CSBMs, LS Mean (SE): 2.31 (0.154) CSBMs/week
  Change from Baseline in CSBMs, Mean (SD): 2.39 (3.375) CSBMs/week
[4]
  Change from Baseline in CSBMs, Difference from Placebo: 0.85 CSBMs/week
  Change from Baseline in CSBMs, LS Mean (SE): 2.35 (0.157) CSBMs/week
  Change from Baseline in CSBMs, Mean (SD): 2.43 (3.395) CSBMs/week
Week 5, 6 mg, ITT Population
  Change from Baseline in CSBMs, Difference from Placebo: 0.48 CSBMs/week
  Change from Baseline in CSBMs, LS Mean (SE): 1.95 (0.153) CSBMs/week
  Change from Baseline in CSBMs, Mean (SD): 1.99 (3.019) CSBMs/week
[5]
  Change from Baseline in CSBMs, Difference from Placebo: 0.46 CSBMs/week
  Change from Baseline in CSBMs, LS Mean (SE): 1.97 (0.154) CSBMs/week
  Change from Baseline in CSBMs, Mean (SD): 1.99 (3.025) CSBMs/week
Week 5, Active Combined, ITT Population-Excluding Duplicate Patients
  Change from Baseline in CSBMs, Mean (SD): 2.20 (3.216) CSBMs/week
Week 5, Active Combined, ITT Population
  Change from Baseline in CSBMs, Mean (SD): 2.18 (3.202) CSBMs/week
Week 6, 3 mg, ITT Population
  Change from Baseline in CSBMs, Difference from Placebo: 1.01 CSBMs/week
  Change from Baseline in CSBMs, LS Mean (SE): 2.32 (0.155) CSBMs/week
  Change from Baseline in CSBMs, Mean (SD): 2.43 (3.548) CSBMs/week
[6]
  Change from Baseline in CSBMs, Difference from Placebo: 1.01 CSBMs/week
  Change from Baseline in CSBMs, LS Mean (SE): 2.35 (0.158) CSBMs/week
  Change from Baseline in CSBMs, Mean (SD): 2.45 (3.571) CSBMs/week
Week 6, 6 mg, ITT Population
  Change from Baseline in CSBMs, Difference from Placebo: 0.92 CSBMs/week
  Change from Baseline in CSBMs, LS Mean (SE): 2.24 (0.153) CSBMs/week
  Change from Baseline in CSBMs, Mean (SD): 2.29 (3.384) CSBMs/week
[7]
  Change from Baseline in CSBMs, Difference from Placebo: 0.93 CSBMs/week
  Change from Baseline in CSBMs, LS Mean (SE): 2.27 (0.155) CSBMs/week
  Change from Baseline in CSBMs, Mean (SD): 2.31 (3.391) CSBMs/week
Week 6, Active Combined, ITT Population-Excluding Duplicate Patients
  Change from Baseline in CSBMs, Mean (SD): 2.38 (3.478) CSBMs/week
Week 6, Active Combined, ITT Population
  Change from Baseline in CSBMs, Mean (SD): 2.36 (3.464) CSBMs/week
Week 7, 3 mg, ITT Population
  Change from Baseline in CSBMs, Difference from Placebo: 0.81 CSBMs/week
  Change from Baseline in CSBMs, LS Mean (SE): 2.29 (0.155) CSBMs/week
  Change from Baseline in CSBMs, Mean (SD): 2.40 (3.413) CSBMs/week
[8]
  Change from Baseline in CSBMs, Difference from Placebo: 0.83 CSBMs/week
  Change from Baseline in CSBMs, LS Mean (SE): 2.33 (0.158) CSBMs/week
  Change from Baseline in CSBMs, Mean (SD): 2.44 (3.435) CSBMs/week
Week 7, 6 mg, ITT Population
  Change from Baseline in CSBMs, Difference from Placebo: 0.82 CSBMs/week
  Change from Baseline in CSBMs, LS Mean (SE): 2.31 (0.154) CSBMs/week
  Change from Baseline in CSBMs, Mean (SD): 2.38 (3.361) CSBMs/week
[9]
  Change from Baseline in CSBMs, Difference from Placebo: 0.83 CSBMs/week
  Change from Baseline in CSBMs, LS Mean (SE): 2.34 (0.155) CSBMs/week
  Change from Baseline in CSBMs, Mean (SD): 2.40 (3.369) CSBMs/week
Week 7, Active Combined, ITT Population-Excluding Duplicate Patients
  Change from Baseline in CSBMs, Mean (SD): 2.42 (3.399) CSBMs/week
Week 7, Active Combined, ITT Population
  Change from Baseline in CSBMs, Mean (SD): 2.39 (3.384) CSBMs/week
Week 8, 3 mg, ITT Population
  Change from Baseline in CSBMs, Difference from Placebo: 1.01 CSBMs/week
  Change from Baseline in CSBMs, LS Mean (SE): 2.52 (0.156) CSBMs/week
  Change from Baseline in CSBMs, Mean (SD): 2.67 (3.747) CSBMs/week
[10]
  Change from Baseline in CSBMs, Difference from Placebo: 1.06 CSBMs/week
  Change from Baseline in CSBMs, LS Mean (SE): 2.56 (0.158) CSBMs/week
  Change from Baseline in CSBMs, Mean (SD): 2.68 (3.765) CSBMs/week
Week 8, 6 mg, ITT Population
  Change from Baseline in CSBMs, Difference from Placebo: 0.82 CSBMs/week
  Change from Baseline in CSBMs, LS Mean (SE): 2.33 (0.154) CSBMs/week
